Measured values published in US6888015B2, “Sphingolipid synthesis inhibitor” (Japan Science and Technology Agency, priority 2001, dated 2005).

How the values were obtained:
Format in all cases: cell-based, Chinese hamster
[1] = system: de novo synthesis of SM in CHO cells; experiment: Metabolic labeling of lipids with [14C]serine in CHO cells
Protocol: CHO cells are cultured in Ham's F12 medium supplemented with 10% newborn bovine serum (NBS), penicillin G (100 unit/mL) and streptomycin sulfate (100 μg/mL) at the temperature of 33° C. and 5% CO2 atmosphere. In the case of HeLa cells, Dulbecco's minimum essential medium is used as a base medium instead of Ham's F12 medium.
Further, Nutridoma medium (Ham's F12 medium containing 1% Nutridoma-SP, product of Roche Molecular Biochemicals, and 25 μg/mL of gentamicin) is used as a serum-free medium. In the case when the medium is supplemented by DMSO or drugs dissolved in DMSO, the concentration of DMSO in culture medium is adjusted to be 0.01%.
CHO cells are seeded at the density of 1.0×10^6 cell in 5 mL of F12 medium containing 10% NBS, by per 60-mm dish, and cultured at 33° C. overnight. Then, the medium is changed to 1.5 mL of Nutridoma medium if necessary, various drugs are added and incubated at 4° C. for 15 minutes. Then, after addition of [^14C] serine (0.75 μCi) or [^14 C] choline (1.0 μCi) to the medium, cells were incubated at 33° C. for various periods of time.
Cells are washed twice with 2 mL of cold phosphate-buffered saline (PBS), and lysed with 900 μL of 0.1% sodium dodecyl sulfate (SDS). Then, 800 μL and 20 μL of lysate are used for lipid extraction and determination of protein concentration, respectively.
For the analysis of lipids labeled with [C^14C] serine, lipids were separated by TLC with a solvent consisting of methylacetate/n-propanol/chloroform/methanol/0.25%KCl (25:25:25:10:9, volume ratio) as a developing solvent.
Radioactive lipid separated on the TLC plates are detected with image analyzer depicted above. After the collection of gels from TLC plates by scraping, the radioactivity of each lipid is determined by liquid scintillation counting and normalized to the protein concentration of cells.

[2] = system: SM synthesis in BFA-treated cells; experiment: [14C]serine labeling in BFA-treated cells (ER and Golgi merged); settings: 1 μM; cells treated with 1 μg/mL BFA (FIG. 5)
Protocol: For the metabolic labeling by [^14C] serine in BFA-treated cells, the cells are preincubated with 1 μg/mL BFA in Nutridoma medium at 33° C. for 30 minutes, then, treated with or without 1 μM HPA-12 in the presence of 1 μg/mL BFA at 4° C. for 15 minutes prior to addition of [^14C] serine.

[3] = system: transport of Cer from the ER to the Golgi apparatus; experiment: Intracellular redistribution and metabolism of C5-DMB-Cer
Protocol: After CHO cells seeded in 60-mm dishes are cultured overnight, said CHO cells are labeled with 1 μM C5-DMB-Cer in 1.5 mL of Nutridoma medium at 4° C. for 30 minutes. Then, after obtained said cells are washed 3 times with F12 medium, said cells are incubated in Nutridoma medium in the presence or absence of 2.5 μM HPA-12 for 15 minutes at 4° C., and then further incubated at 33° C. for various periods of time.
After washed with PBS, the chased cells are lysed with 0.1% SDS as mentioned above. The lipids extracted from cell lysate are separated by high performance TLC with a solvent of chloroform/methanol/H2O (volume ratio, 65:25:4). Quantitative measurement of C5-DMB-SM and C5-DMB-Cer are performed by scraping gel from TLC plates, extracting by chloroform/methanol/H2O (volume ratio, 1:2:0.8), and by measuring DMB fluorescence (excitation wave length 480 nm, emission wave length 515 nm) of the extracted product.
After CHO cells grown on the glass coverslip (22-mm diameter) in 35 mm dishes are incubated in F12 medium containing 1 μM C5-DMB-Cer at 4[…] for 30 minutes for pulse label, washed three times with 1 mL of F12 medium, and incubated in 1 mL of Nutridoma medium in the presence or absence of 2.5 μM HPA-12 at 4° C. for 15 minutes. Then, the pulse-labeled cells are incubated at 33° C. for 15 minutes for chase, washed with PBS containing 0.125% glutaraldehyde at 4° C. for 5 minutes. […]

[4] = [14C]serine labeling, CHO cells
[5] = [14C]serine labeling, weaker than effect on SM (FIG. 2B)

`CCCCCCCCCCCC(=O)NC(CO)CC(O)c1ccccc1` (centres unmarked) [HPA-12, N-(3-hydroxy-1-hydroxymethyl-3-phenylprol)dodecaneamide] was tested, and the “formation of [14C]SM” value ([1]; 0.1 μM, 2-hour labeling with [14C]serine (FIG. 2A)) was “significantly inhibits”, the “formation of [14C] (SM), level relative to control” value ([1]; 1 μM, time course up to 5 hours (FIG. 2B)) was “approximately 30 % of the drug-free control level” and the “formation of [14C]SM” value ([1]; 2.5 μM drug, [14C]serine labeling, CHO cells (FIG. 1B)) was “remarkably inhibited”. For the same molecule, the “concentration at which the inhibitory effect on [14C]SM formation reaches a plateau” value ([1]; 2-hour labeling with [14C]serine (FIG. 2A)) was “around 1 μM”, the “formation of [14C]phosphatidylethanolamine (PE)” value [1, 4] was “does not affect” and the “formation of [14C]phosphatidylserine (PS)” value [1, 4] was “does not affect”. The “formation of [14C]Cer” value [1, 5] was “significantly inhibited”, the “formation of [14C]GlcCer” value [1, 5] was “significantly inhibited” and the “formation of [14C]serine-derived SM” value [2] was “no longer inhibits”. The “accumulation of DMB-fluorescence to the perinuclear Golgi region vs untreated control” value ([3]; 2.5 μM, chase at 33° C. for 15 minutes) was “clearly lower” and the “inhibition of conversion of C5-DMB-Cer to C5-DMB-SM” value ([3]; HPA-12 treated cells, data not shown) was 50%.
